Test results reported in the NIST ThermoML archive (doi:10.1016/j.jct.2012.03.003).

Experiment: xn = mol fraction of the nth substance listed
Details: Liquid, Vibrating tube method

COc1cc2c(cc1O)CC1c3c(cc(O)c(OC)c3-2)CCN1C (stereo not given) [boldine] + CCCO
Details | mass density [kg/m3]
323.11 K, 16000 kPa, x1 = 0.0112 | 811.88
323.11 K, 16000 kPa, x1 = 0.0142 | 816.47
323.11 K, 17000 kPa, x1 = 0.0112 | 812.65
323.11 K, 17000 kPa, x1 = 0.0142 | 817.24
323.11 K, 18000 kPa, x1 = 0.0112 | 813.42
323.11 K, 18000 kPa, x1 = 0.0142 | 818
323.11 K, 19000 kPa, x1 = 0.0112 | 814.16
323.11 K, 19000 kPa, x1 = 0.0142 | 818.74
323.11 K, 20000 kPa, x1 = 0.0112 | 814.92
323.11 K, 20000 kPa, x1 = 0.0142 | 819.49
323.12 K, 1000 kPa, x1 = 0.0077 | 792.79
323.12 K, 2000 kPa, x1 = 0.0077 | 793.61
323.12 K, 3000 kPa, x1 = 0.0077 | 794.44
323.12 K, 4000 kPa, x1 = 0.0077 | 795.28
323.12 K, 5000 kPa, x1 = 0.0077 | 796.12
323.12 K, 6000 kPa, x1 = 0.0077 | 796.97
323.12 K, 7000 kPa, x1 = 0.0077 | 797.82
323.12 K, 8000 kPa, x1 = 0.0077 | 798.67
323.12 K, 9000 kPa, x1 = 0.0077 | 799.51
323.12 K, 10000 kPa, x1 = 0.0077 | 800.35
323.12 K, 11000 kPa, x1 = 0.0077 | 801.2
323.12 K, 12000 kPa, x1 = 0.0077 | 802.03
323.12 K, 13000 kPa, x1 = 0.0077 | 802.85
323.12 K, 14000 kPa, x1 = 0.0077 | 803.66
323.12 K, 15000 kPa, x1 = 0.0077 | 804.47
323.12 K, 16000 kPa, x1 = 0.0077 | 805.27
323.12 K, 17000 kPa, x1 = 0.0077 | 806.04
323.12 K, 18000 kPa, x1 = 0.0077 | 806.81
323.12 K, 19000 kPa, x1 = 0.0077 | 807.57
323.12 K, 20000 kPa, x1 = 0.0077 | 808.3
323.14 K, 1000 kPa, x1 = 0.0046 | 788.94
323.14 K, 2000 kPa, x1 = 0.0046 | 789.78
323.14 K, 3000 kPa, x1 = 0.0046 | 790.61
323.14 K, 4000 kPa, x1 = 0.0046 | 791.45
323.14 K, 5000 kPa, x1 = 0.0046 | 792.3
323.14 K, 6000 kPa, x1 = 0.0046 | 793.15
323.14 K, 7000 kPa, x1 = 0.0046 | 794.01
323.14 K, 8000 kPa, x1 = 0.0046 | 794.86
323.14 K, 9000 kPa, x1 = 0.0046 | 795.72
323.14 K, 10000 kPa, x1 = 0.0046 | 796.56
323.14 K, 11000 kPa, x1 = 0.0046 | 797.4
323.14 K, 12000 kPa, x1 = 0.0046 | 798.24
323.14 K, 13000 kPa, x1 = 0.0046 | 799.07
323.14 K, 14000 kPa, x1 = 0.0046 | 799.88
323.14 K, 15000 kPa, x1 = 0.0046 | 800.71
323.14 K, 16000 kPa, x1 = 0.0046 | 801.5
323.14 K, 17000 kPa, x1 = 0.0046 | 802.28
323.14 K, 18000 kPa, x1 = 0.0046 | 803.06
323.14 K, 19000 kPa, x1 = 0.0046 | 803.81
323.14 K, 20000 kPa, x1 = 0.0046 | 804.56
333.04 K, 1000 kPa, x1 = 0.0018 | 774.01
333.04 K, 1000 kPa, x1 = 0.0077 | 784.16
333.04 K, 1000 kPa, x1 = 0.0112 | 790.89
333.04 K, 1000 kPa, x1 = 0.0142 | 795.51
333.04 K, 2000 kPa, x1 = 0.0018 | 774.92
333.04 K, 2000 kPa, x1 = 0.0077 | 785.05
333.04 K, 2000 kPa, x1 = 0.0112 | 791.78
333.04 K, 2000 kPa, x1 = 0.0142 | 796.38
333.04 K, 3000 kPa, x1 = 0.0018 | 775.82
333.04 K, 3000 kPa, x1 = 0.0077 | 785.95
333.04 K, 3000 kPa, x1 = 0.0112 | 792.66
333.04 K, 3000 kPa, x1 = 0.0142 | 797.27
333.04 K, 4000 kPa, x1 = 0.0018 | 776.73
333.04 K, 4000 kPa, x1 = 0.0077 | 786.85
333.04 K, 4000 kPa, x1 = 0.0112 | 793.55
333.04 K, 4000 kPa, x1 = 0.0142 | 798.15
333.04 K, 5000 kPa, x1 = 0.0018 | 777.64
333.04 K, 5000 kPa, x1 = 0.0077 | 787.74
333.04 K, 5000 kPa, x1 = 0.0112 | 794.46
333.04 K, 5000 kPa, x1 = 0.0142 | 799.05
333.04 K, 6000 kPa, x1 = 0.0018 | 778.55
333.04 K, 6000 kPa, x1 = 0.0077 | 788.65
333.04 K, 6000 kPa, x1 = 0.0112 | 795.35
333.04 K, 6000 kPa, x1 = 0.0142 | 799.92
333.04 K, 7000 kPa, x1 = 0.0018 | 779.47
333.04 K, 7000 kPa, x1 = 0.0077 | 789.55
333.04 K, 7000 kPa, x1 = 0.0112 | 796.25
333.04 K, 7000 kPa, x1 = 0.0142 | 800.8
333.04 K, 8000 kPa, x1 = 0.0018 | 780.38
333.04 K, 8000 kPa, x1 = 0.0077 | 790.45
333.04 K, 8000 kPa, x1 = 0.0112 | 797.14
333.04 K, 8000 kPa, x1 = 0.0142 | 801.7
333.04 K, 9000 kPa, x1 = 0.0018 | 781.29
333.04 K, 9000 kPa, x1 = 0.0077 | 791.35
333.04 K, 9000 kPa, x1 = 0.0112 | 798.03
333.04 K, 9000 kPa, x1 = 0.0142 | 802.57
333.04 K, 10000 kPa, x1 = 0.0018 | 782.18
333.04 K, 10000 kPa, x1 = 0.0077 | 792.22
333.04 K, 10000 kPa, x1 = 0.0112 | 798.91
333.04 K, 10000 kPa, x1 = 0.0142 | 803.44
333.04 K, 11000 kPa, x1 = 0.0018 | 783.07
333.04 K, 11000 kPa, x1 = 0.0077 | 793.11
333.04 K, 11000 kPa, x1 = 0.0112 | 799.78
333.04 K, 11000 kPa, x1 = 0.0142 | 804.31
333.04 K, 12000 kPa, x1 = 0.0018 | 783.97
333.04 K, 12000 kPa, x1 = 0.0077 | 793.99
333.04 K, 12000 kPa, x1 = 0.0112 | 800.64
333.04 K, 12000 kPa, x1 = 0.0142 | 805.16
333.04 K, 13000 kPa, x1 = 0.0018 | 784.84
333.04 K, 13000 kPa, x1 = 0.0077 | 794.86
333.04 K, 13000 kPa, x1 = 0.0112 | 801.49
333.04 K, 13000 kPa, x1 = 0.0142 | 806.02
333.04 K, 14000 kPa, x1 = 0.0018 | 785.7
333.04 K, 14000 kPa, x1 = 0.0077 | 795.71
333.04 K, 14000 kPa, x1 = 0.0112 | 802.35
333.04 K, 14000 kPa, x1 = 0.0142 | 806.86
333.04 K, 15000 kPa, x1 = 0.0018 | 786.56
333.04 K, 15000 kPa, x1 = 0.0077 | 796.55
333.04 K, 15000 kPa, x1 = 0.0112 | 803.19
333.04 K, 15000 kPa, x1 = 0.0142 | 807.69
333.04 K, 16000 kPa, x1 = 0.0018 | 787.41
333.04 K, 16000 kPa, x1 = 0.0077 | 797.38
333.04 K, 16000 kPa, x1 = 0.0112 | 804
333.04 K, 16000 kPa, x1 = 0.0142 | 808.51
333.04 K, 17000 kPa, x1 = 0.0018 | 788.23
333.04 K, 17000 kPa, x1 = 0.0077 | 798.2
333.04 K, 17000 kPa, x1 = 0.0112 | 804.81
333.04 K, 17000 kPa, x1 = 0.0142 | 809.32
333.04 K, 18000 kPa, x1 = 0.0018 | 789.05
333.04 K, 18000 kPa, x1 = 0.0077 | 799.02
333.04 K, 18000 kPa, x1 = 0.0112 | 805.61
333.04 K, 18000 kPa, x1 = 0.0142 | 810.12
333.04 K, 19000 kPa, x1 = 0.0018 | 789.86
333.04 K, 19000 kPa, x1 = 0.0077 | 799.81
333.04 K, 19000 kPa, x1 = 0.0112 | 806.39
333.04 K, 19000 kPa, x1 = 0.0142 | 810.91
333.04 K, 20000 kPa, x1 = 0.0018 | 790.65
333.04 K, 20000 kPa, x1 = 0.0077 | 800.56
333.04 K, 20000 kPa, x1 = 0.0112 | 807.16
333.04 K, 20000 kPa, x1 = 0.0142 | 811.68
333.07 K, 1000 kPa, x1 = 0.0046 | 780.3
333.07 K, 2000 kPa, x1 = 0.0046 | 781.23
333.07 K, 3000 kPa, x1 = 0.0046 | 782.1
333.07 K, 4000 kPa, x1 = 0.0046 | 783.02
333.07 K, 5000 kPa, x1 = 0.0046 | 783.92
333.07 K, 6000 kPa, x1 = 0.0046 | 784.83
333.07 K, 7000 kPa, x1 = 0.0046 | 785.74
333.07 K, 8000 kPa, x1 = 0.0046 | 786.64
333.07 K, 9000 kPa, x1 = 0.0046 | 787.54
333.07 K, 10000 kPa, x1 = 0.0046 | 788.44
333.07 K, 11000 kPa, x1 = 0.0046 | 789.33
333.07 K, 12000 kPa, x1 = 0.0046 | 790.21
333.07 K, 13000 kPa, x1 = 0.0046 | 791.08
333.07 K, 14000 kPa, x1 = 0.0046 | 791.94
333.07 K, 15000 kPa, x1 = 0.0046 | 792.79
333.07 K, 16000 kPa, x1 = 0.0046 | 793.62
333.07 K, 17000 kPa, x1 = 0.0046 | 794.45
333.07 K, 18000 kPa, x1 = 0.0046 | 795.27
333.07 K, 19000 kPa, x1 = 0.0046 | 796.06
333.07 K, 20000 kPa, x1 = 0.0046 | 796.84
